From patent US10858366B2 (priority 2016, dated 2020) come the findings set out here.

The target of assay [1] is RNP_CAL (PB2, PB1, PA, NP, influenza A Luciferase reporter in 293T cells) (Influenza A virus (strain swl A/California/04/2009 H1N1), UniProt C3W5S0). The experiment in a line: cell-based.
The target of assay [2] is truncated Influenza A/victoria/75 PA(1-209) (Influenza A virus (strain A/Victoria/3/1975 H3N2), UniProt P31343). The experiment in a line: Endonuclease Inhibition Assay (PA FP Assay). Format: binding. The note with it: fluorescence polarization, fluorescein-labeled probe. The procedure:
Endonuclease Inhibition Assay (PA FP Assay)
Compounds were dissolved and serially diluted in 100% DMSO then 0.5 μl was transferred to 384-well plates. 50 nM truncated Influenza A/victoria/75 PA(1-209) was prepared in assay buffer (20 mM Tris, pH=7.5, 10 mM MgCl2, 0.01% Tween 20, 100 mM NaCl and 1 mM DTT) and 20 ul was added to each well of assay plate with compounds, centrifuged for 1 min at 1000 rpm and incubated for 30 min at room temperature. 20 μl of 20 nM fluorescein-labeled probe [5-(4-(3-carboxy-3-oxopropanoyl)-4-(4-chlorobenzyl)piperidine-1-carbonyl)-2-(6-hydroxy-3-oxo-3H-xanthen-9-yl)benzoic acid] in assay buffer was then added, centrifuged for 1 min at 1000 rpm and incubated for 60 min at room temperature.
Fluorescence polarization was measured on Perkin Elmer Envision plate reader with excitation at 480 nm and emission at 535 nm and reported in millipolarization units (mP). IC50 values were determined relative to wells containing 125 uM of a compound known to bind to the active site of PA and uninhibited wells containing 1.25% DMSO.

By EC50 is commonly meant the concentration at which the effect is half-maximal. Low readings indicate greater potency, high ones weaker potency. In general, IC50 refers to the concentration that inhibits the measured activity by half. A high value points to lower potency.

As to `O=c1cnn2c(c1O)-c1nccn1CC2C(c1ccccc1)c1ccccc1` (stereo not shown) [Example 1, 6-Benzhydryl-11-hydroxy-5H-imidazo[2′,1′:3,4]pyrazino[1,2-b]pyridazin-10(6H)-one], a half-maximal response in assay [1] (EC50) required 110 nM. In addition, in assay [2], the IC50 was 50 nM. Turning to `O=c1cnn2c(c1O)-c1nccn1CC2C(c1cccc(F)c1)c1cccc(F)c1` (stereo not shown) [Example 2, 6-(bis(3-fluorophenyl)methyl)-11-hydroxy-5,6-dihydro-10H-imidazo[2′,1′:3,4]pyrazino[1,2-b]pyridazin-10-one], in assay [1], a half-maximal response (EC50) required 110 nM. Moreover, half-maximal inhibition in assay [2] (IC50) was put at 70 nM. With `O=c1cnn2c(c1O)-c1ncnn1CC2C(c1ccccc1)c1ccccc1` (stereo not shown) [Example 3, 6-benzhydryl-11-hydroxy-5,6-dihydro-10H-[1,2,4]triazolo[5′,1′:3,4]pyrazino[1,2-b]pyridazin-10-one], the EC50 in assay [1] came out at 1100 nM. In assay [2], it took 400 nM to reach half-maximal inhibition (IC50). Turning to `O=c1ccn2c(c1O)-c1nccn1C[C@@H]2C(c1ccccc1)c1ccccc1` [Example 4, (S)-6-Benzhydryl-11-hydroxy-5H-imidazo[1,2-a]pyrido[2,1-c]pyrazin-10(6H)-one], in assay [1], the 50% effective concentration (EC50) worked out at 160 nM. The molecule also came in with an IC50 in assay [2] of 10 nM.

For the molecule `O=c1ccn2c(c1O)-c1ncc(Cl)n1C[C@@H]2C(c1ccccc1)c1ccccc1` [Example 5, (S)-6-Benzhydryl-3-chloro-11-hydroxy-5,6-dihydro-10H-imidazo[1,2-a]pyrido[2,1-c]pyrazin-10-one], the EC50 in assay [1] is 100 nM. Half-maximal inhibition in assay [2] (IC50) required 20 nM. Molecule `O=c1ccn2c(c1O)-c1nccn1CN2C(c1ccccc1)c1ccccc1` [Example 6, 6-benzhydryl-11-hydroxy-5H-imidazo[1,2-d]pyrido[2,1-f][1,2,4]triazin-10(6H)-one] returned an EC50 in assay [1] of 190 nM. In addition, the IC50 in assay [2] turned out to be 40 nM.

Turning to `O=c1ccn2c(c1O)-c1ncc(Br)n1C[C@@H]2C(c1ccccc1)c1ccccc1` [Example 7, (S)-6-benzhydryl-3-bromo-11-hydroxy-5H-imidazo[1,2-a]pyrido[2,1-c]pyrazin-10(6H)-one], in assay [1], the EC50 was found to be 170 nM. For the same molecule, the IC50 in assay [2] came to 9 nM. The molecule `O=c1ccn2c(c1O)-c1ncc(C3CC3)n1C[C@@H]2C(c1ccccc1)c1ccccc1` [Example 8, (S)-6-benzhydryl-3-cyclopropyl-11-hydroxy-5H-imidazo[1,2-a]pyrido[2,1-c]pyrazin-10(6H)-one] yielded an EC50 in assay [1] of 150 nM. For the same molecule, the IC50 in assay [2] is 40 nM. For `Cc1nc2n(c1C)C[C@H](C(c1ccccc1)c1ccccc1)n1ccc(=O)c(O)c1-2` [Example 14, (S)-6-benzhydryl-11-hydroxy-2,3-dimethyl-5H-imidazo[1,2-a]pyrido[2,1-c]pyrazin-10(6H)-one] the same measures were 4200 nM and 100 nM. For `O=c1cnn2c(c1O)-c1nccn1C[C@@H]2[C@H](c1ccccc1)c1ccc(F)cc1` [Example 17, (S)-6-((R)-(4-fluorophenyl)(phenyl)methyl)-11-hydroxy-5,6-dihydro-10H-imidazo[2′,1′:3,4]pyrazino[1,2-b]pyridazin-10-one] the same measures were 10 nM and 20 nM. The matching figures for `O=c1cnn2c(c1O)-c1nccn1C[C@@H]2[C@@H](c1ccccc1)c1ccc(F)cc1` [Example 18, (S)-6-((S)-(4-fluorophenyl)(phenyl)methyl)-11-hydroxy-5,6-dihydro-10H-imidazo[2′,1′:3,4]pyrazino[1,2-b]pyridazin-10-one]: 130 nM and 20 nM. As to `O=c1cnn2c(c1O)-c1nccn1C[C@@H]2[C@H](c1ccc(F)cc1)c1cncc(F)c1` [Example 19, (S)-6-((R)-(4-fluorophenyl)(5-fluoropyridin-3-yl)methyl)-11-hydroxy-5,6-dihydro-10H-imidazo[2′,1′:3,4]pyrazino[1,2-b]pyridazin-10-one], in assay [1], a half-maximal response (EC50) required 260 nM. Also, in assay [2], it took 40 nM to reach half-maximal inhibition (IC50). The matching figures for `O=c1cnn2c(c1O)-c1nccn1C[C@@H]2[C@H](c1ccc(F)cc1)c1ccc(C(F)(F)F)nc1` [Example 20, (S)-6-((R)-(4-fluorophenyl)(6-(trifluoromethyl)pyridin-3-yl)methyl)-11-hydroxy-5,6-dihydro-10H-imidazo[2′,1′:3,4]pyrazino[1,2-b]pyridazin-10-one]: 720 nM and 300 nM. Take `O=c1cnn2c(c1O)-c1nccn1C[C@@H]2C(c1cccc(F)c1)c1cccc(F)c1` [Example 23, (S)-6-(bis(3-fluorophenyl)methyl)-11-hydroxy-5,6-dihydro-10H-imidazo[2′,1′:3,4]pyrazino[1,2-b]pyridazin-10-one]: the EC50 in assay [1] was 39 nM. The midpoint of inhibition in assay [2], the IC50, lay at 50 nM.

As to `O=c1cnn2c(c1O)-c1nccn1C[C@@H]2[C@@H](c1ccc(F)cc1)c1cccc(Br)c1` [Example 30, (S)-6-((S)-(3-bromophenyl)(4-fluorophenyl)methyl)-11-hydroxy-5,6-dihydro-10H-imidazo[2′,1′:3,4]pyrazino[1,2-b]pyridazin-10-one], the midpoint of inhibition in assay [2], the IC50, lay at 10 nM. On the same count and under the same terms, the figure for `O=c1ccn2c(c1O)-c1ncc(CO)n1C[C@@H]2C(c1ccccc1)c1ccccc1` [Example 54, (S)-6-benzhydryl-11-hydroxy-3-(hydroxymethyl)-5,6-dihydro-10H-imidazo [1,2-a]pyrido[2,1-c]pyrazin-10-one] is 100 nM. Molecule `O=C(NC1CC1)c1cnc2n1C[C@H](C(c1ccccc1)c1ccccc1)n1ccc(=O)c(O)c1-2` [Example 70, (S)-6-benzhydryl-N-cyclopropyl-11-hydroxy-10-oxo-5,6-dihydro-10H-imidazo[1,2-a]pyrido[2,1-c]pyrazine-3-carboxamide] yielded an EC50 in assay [1] of 1700 nM. In turn, `O=C(c1cnc2n1C[C@H](C(c1ccccc1)c1ccccc1)n1ccc(=O)c(O)c1-2)N1CCCC1` [Example 72, (S)-6-benzhydryl-11-hydroxy-3-(pyrrolidine-1-carbonyl)-5,6-dihydro-10H-imidazo[1,2-a]pyrido[2,1-c]pyrazin-10-one] came in with a 50% effective concentration (EC50) in assay [1] of 1700 nM.

In assay [1], `O=c1ccn2c(c1O)-c1nccn1C(C1CC1)N2C(c1ccccc1)c1ccccc1` (stereo not shown) [Example 73, 6-benzhydryl-5-cyclopropyl-11-hydroxy-5,6-dihydro-10H-imidazo[1,2-d]pyrido[2,1-f][1,2,4]triazin-10-one] displayed an EC50 of 170 nM. `O=c1ccn2c(c1O)-c1nccn1CN2C1c2ccccc2CSc2ccccc21` (stereo not shown) [Example 74, 6-(6,11-dihydrodibenzo[b,e]thiepin-11-yl)-11-hydroxy-5,6-dihydro-10H-imidazo[1,2-d]pyrido[2,1-f][1,2,4]triazin-10-one] registered an EC50 in assay [1] of 84 nM. On the same count and under the same terms, the figure for `O=c1ccn2c(c1O)-c1nccn1C(C1CC1)N2C1c2ccccc2CSc2ccccc21` (stereo not shown) [Example 76, 5-cyclopropyl-6-(6,11-dihydrodibenzo[b,e]thiepin-11-yl)-11-hydroxy-5,6-dihydro-10H-imidazo[1,2-d]pyrido[2,1-f][1,2,4]triazin-10-one] is 160 nM; for `O=c1ccn2c(c1O)-c1nccn1C1(COC1)N2C1c2ccccc2CSc2ccccc21` (stereo not shown) [Example 80, 6-(6,11-dihydrodibenzo[b,e]thiepin-11-yl)-11-hydroxy-6H,10H-spiro[imidazo[1,2-d]pyrido[2,1-f][1,2,4]triazine-5,3′-oxetan]-10-one] it is 10 nM. Same read-out and setting: the figure for `O=c1ccn2c(c1O)-c1ncsc1CN2C(c1ccccc1)c1ccccc1` [Example 81, 5-benzhydryl-10-hydroxy-4,5-dihydro-9H-pyrido[1,2-b]thiazolo[4,5-d]pyridazin-9-one] is 7000 nM; for `O=c1ccn2c(c1O)-c1ncoc1CN2C(c1ccccc1)c1ccccc1` [Example 83, 5-benzhydryl-10-hydroxy-4,5-dihydro-9H-oxazolo[4,5-d]pyrido[1,2-b]pyridazin-9-one] it is 970 nM; for `O=c1ccn2c(c1O)-c1ocnc1CN2C(c1ccccc1)c1ccccc1` [Example 84, 5-benzhydryl-10-hydroxy-4,5-dihydro-9H-oxazolo[5,4-d]pyrido[1,2-b]pyridazin-9-one] it is 11000 nM. The same measure, in the same setting: as for `CC(=O)Oc1c2n(ncc1=O)[C@@H](C(c1ccc(F)cc1)c1ccc(F)cc1)Cn1ccnc1-2` [Example 85, (S)-6-(bis(4-fluorophenyl)methyl)-10-oxo-5,6-dihydro-10H-imidazo[2′,1′:3,4]pyrazino[1,2-b]pyridazin-11-yl acetate], the figure is 22 nM; as for `CC(C)C(=O)Oc1c2n(ncc1=O)[C@@H](C(c1ccc(F)cc1)c1ccc(F)cc1)Cn1ccnc1-2` [Example 86, (S)-6-(bis(4-fluorophenyl)methyl)-10-oxo-5,6-dihydro-10H-imidazo[2′,1′:3,4]pyrazino[1,2-b]pyridazin-11-yl isobutyrate], 21 nM; as for `CC(C)CC(=O)Oc1c2n(ncc1=O)[C@@H](C(c1ccc(F)cc1)c1ccc(F)cc1)Cn1ccnc1-2` [Example 87, (S)-6-(bis(4-fluorophenyl)methyl)-10-oxo-5,6-dihydro-10H-imidazo[2′,1′:3,4]pyrazino[1,2-b]pyridazin-11-yl 3-methylbutanoate], 21 nM. For `COC(=O)OCOc1c2n(ncc1=O)[C@@H](C(c1ccc(F)cc1)c1ccc(F)cc1)Cn1ccnc1-2` [Example 88, (S)-((6-(bis(4-fluorophenyl)methyl)-10-oxo-5,6-dihydro-10H-imidazo[2′,1′:3,4]pyrazino[1,2-b]pyridazin-11-yl)oxy)methyl methyl carbonate], the midpoint of the response in assay [1], the EC50, lay at 42 nM.
